In patent publication US6803226B2, “Method of forming an artificial Shiro of Matsutake” (The University of Tokyo, priority 2001, dated 2004):

Tested on: Matsutake hyphae (strain Tm 89)
Test: Growth of Matsutake hyphae in soil containing Tween 80 additive, determined by ergosterol amount
Format: cell-based, Tricholoma Matsutake
Conditions: Tween 80 additive 1, 2 or 5 wt % vs 0 wt %, 20 wt % of soil, one month incubation at 25±1° C. in the dark, FIG. 1
Description: The culture substrate containing an active principle prepared as described above is put into a sterile container (a Petri-dish, etc.). A hypha solution containing Matsutake hyphae is inoculated into the culture substrate in the sterile container such that the hypha solution is spread throughout the culture substrate. Culture of Matsutake hyphae can be performed at 25±1° C. in the dark. After 1 to 3 month's culture of Matsutake hyphae, a piece of the grown hyphae (i.e., a Shiro) are taken as a sample, and the growth amount of the hyphae is determined based on the amount of ergosterol. Ergosterol can be quantified as follows. After a sample of a Shiro is freeze-dried (EYELA, FDU-830), 1 g of the sample is taken and extracted with 2.5 mL of ethanol (99.5%). The obtained extract is loaded into HPLC (high-performance liquid chromatography; HITACHI, Column L-7300; UV Detector L-7400; Autosampler L-7200; Pump L-7100; Integrator D-7500) to quantify the amount of ergosterol in the extract. With respect to the details of the quantification procedure, reference should be made to Martin et al. (1990) Mycol. Res. 94: 1059-1064. About one week after the initiation of the culture, it is observed that the hyphae are grown on the surface of the culture substrate. About 4 weeks after the initiation of the culture, increase in the growth amount of the hyphae is found. […]

CCCCCCCC/C=C\CCCCCCCC(=O)OCCOCC(OCCO)C1OCC(OCCO)C1OCCO (stereo not shown) [Tween 80, Polyoxyethylene (20) Sorbitan Monooleate]
growth of Matsutake hyphae (amount of ergosterol): significantly enhanced
